Columns and labels:
[1] = tested on: replication of HAdV-5 in HEp-2 cells; assay: Antiviral activity assay, CPE inhibition; assay type: cell-based; settings: Human adenovirus sp., HEp-2, read-out: IC50, antiviral activity on the replication of HAdV-5
Method: For checking the viral load, the antiviral screening based on the viral yield reduction technique was used. The cytopathic inhibition assay (CPE) utilizes 100 CCID50 loading in 0.1 mL of a monolayer of confluent cells in 96-well plates. After 1 h of virus adsorption, the extract was added in various concentrations, and cells were incubated for 48 h at 37 °C. The viable cells were stained according to the neutral red uptake procedure and the percentage of CPE inhibition for each concentration of the test sample was calculated using the following formula: % CPE = [ODtest sample − ODvirus control]/[ODtoxicity control − ODvirus control] × 100. The concentration of the material inhibition 50% of viral replication when compared to the virus control was defined as the 50% inhibitory concentration (IC50). The ratio CC50/IC50 was calculated to evaluate the selectivity index (SI).

B. cereus = assay: Disc test on agar medium; assay type: cell-based, Bacillus cereus; settings: discs, gentamicin disc 10 µg
Method: (§1) Initially, the compounds were tested on an agar medium using commercial discs with gentamicin (10 µg) as a standard against B. cereus and P. aeruginosa used as model bacterial strains. As a result, no inhibition zones were observed around the discs with the compounds against both tested strains. With gentamicin, zones (mm in diameter) of 15 mm against B. cereus, and 12 mm against P. aeruginosa, were measured.
(§2) The antibacterial activity of the investigated compounds was tested against Gram-positive Bacillus cereus and Gram-negative Pseudomonas aeruginosa used as model strains (Collection of the Institute of Microbiology, Bulgarian Academy of Sciences). Microbial cultures were maintained at 4 °C on meat-peptone agar (MPA) slants and transferred monthly.

P. aeruginosa = assay: Disc test on agar medium; assay type: cell-based, Pseudomonas aeruginosa; settings: discs, gentamicin disc 10 µg
Method: as §1, §2

Row | Compound | IC50 [1] | inhibition zone (mm in diameter) (B. cereus) | inhibition zone (mm in diameter) (P. aeruginosa)
1 | NC(=O)c1ncn([C@@H]2O[C@H](CO)[C@@H](O)[C@H]2O)n1 [Ribavirin] | 115 µM | – | –
2 | CNC(C)C1CCC(N)C(OC2C(N)CC(N)C(OC3OCC(C)(O)C(NC)C3O)C2O)O1 (stereo not drawn) [gentamicin] | – | 15 mm | 12 mm

— PMC9332204, “Study of Novel Peptides for Antimicrobial Protection in Solution and on Cotton Fabric” (Molecules, 2022)
